Reference: patent US7425551B2, “Malonamide derivatives” (Hoffmann-La Roche Inc., priority 2006, dated 2008)
pIC50: −log10 of the molar value.

Target: T1, γ-secretase (Homo sapiens, UniProt P49768)
T1 construct: uses a HEK293 membrane fraction as a source of γ-secretase; endogenous in cells; host or cells: HEK293 (microsomal membrane fraction, solubilised in 0.25% CHAPSO)
Test: in vitro assay of γ-secretase activity (HEK293 membrane fraction, recombinant APP substrate, Abeta ELISA)
Type: biochemical
Details: γ-secretase inhibition; HEK293 membrane fraction solubilized in 0.25% CHAPSO, recombinant human APP C-terminal 100 amino acids substrate, Abeta detected by ELISA
Source text: Description of 1γ-Secretase Assay The activity of test compounds can be evaluated in assays which measure the proteolytic cleavage of suitable substrates by γ-secretase activity. These can be cellular assays where e.g., a substrate of the γ-secretase is fused in its cytoplasmic domain to a transcription factor. Cells are transfected with this fusion gene and a reporter gene, e.g., firefly luciferase, which expression is enhanced by the transcription factor. Cleavage of the fused substrate by γ-secretase will lead to expression of the reporter gene which can be monitored in appropriate assays. The γ-secretase activity can also be determined in cell-free in vitro assays where e.g., a cell lysate containing the γ-secretase complex is incubated with a suitable APP-derived substrate which is cleaved to the Abeta peptides. The amount of produced peptides can be determined with specific ELISA assays. Cell lines of neuronal origin secrete Abeta peptides which can be measured with the specific ELISA assay. Treatment with compounds which inhibit γ-secretase leads to a reduction of secreted Abeta thus providing a measure of inhibition. The in vitro assay of γ-secretase activity uses a HEK293 membrane fraction as a source of γ-secretase and a recombinant APP substrate. Latter consist of the C-terminal 100 amino acids of human APP fused to a 6× Histidin tail for purification which is expressed in E. coli in a regulatable expression vector, e.g. pEt15. This recombinant protein corresponds to the truncated APP fragment which results after […] of the extracellular domain and which constitutes the γ-secretase substrate. The assay principle is described in Li Y M et al, PNAS 97(11), 6138-6143 (2000). Hek293 cells are mechanically disrupted and the microsomal fraction is isolated by differential centrifugation. The membranes are solubilized in detergent (0.25% CHAPSO) and incubated with the APP substrate. The Abeta peptides which are produced by γ-secretase cleavage of the substrate are detected by specific ELISA assays as described (Brockhaus M et al, Neuroreport 9(7), 1481-1486 (1998).

Structure (SMILES)	pIC50
COC(=O)CN1C(=O)[C@@H](NC(=O)C(C)C(=O)NCC(F)(F)C(F)(F)F)c2ccccc2-c2ccccc21 (stereo partly drawn) [Example 1, {(S)-6-Oxo-7-[2-(2,2,3,3,3-pentafluoro-propylcarbamoyl)-propionylamino]-6,7-dihydro-dibenzo[b,d]azepin-5-yl}-acetic acid methyl ester]	8.00
O=C(CC(=O)N[C@@H]1C(=O)N(CCOCc2ccccc2)c2ccccc2-c2ccccc21)NCCC(F)(F)F [Example 28, N—[(S)-5-(2-Benzyloxy-ethyl)-6-oxo-6,7-dihydro-5H-dibenzo[b,d]azepin-7-yl]-N′-(3,3,3-trifluoro-propyl)-malonamide]	7.17
C[C@@](O)(C(=O)NCC(F)(F)F)C(=O)N[C@@H]1C(=O)N(CCO)c2ccccc2-c2ccccc21 [Example 59, (R)-2-Hydroxy-N—[(S)-5-(2-hydroxy-ethyl)-6-oxo-6,7-dihydro-5H-dibenzo[b,d]azepin-7-yl]-2-methyl-N′-(2,2,2-trifluoro-ethyl)-malonamide]	6.72
C[C@](F)(C(=O)NCC(F)(F)F)C(=O)N[C@@H]1C(=O)N(CCOCc2ccccc2)c2ccccc2-c2ccccc21 [Example 43, (S)—N—[(S)-5-(2-Benzyloxy-ethyl)-6-oxo-6,7-dihydro-5H-dibenzo[b,d]azepin-7-yl]-2-fluoro-2-methyl-N′-(2,2,2-trifluoro-ethyl)-malonamide]	7.89
C[C@H](OC(=O)NCC(F)(F)C(F)(F)F)C(=O)N[C@@H]1C(=O)N(CCOCc2ccccc2)c2ccccc2-c2ccccc21 [Example 5, (2,2,3,3,3-Pentafluoro-propyl)-carbamic acid (S)-1-[(S)-5-(2-benzyloxy-ethyl)-6-oxo-6,7-dihydro-5H-dibenzo[b,d]azepin-7-ylcarbamoyl]-ethyl ester]	7.96
CC(F)(C(=O)NCC(F)(F)C(F)(F)F)C(=O)N[C@@H]1C(=O)N(CCOCc2ccccc2)c2ccccc2-c2ccccc21 (stereo partly drawn) [Example 13, N—[(S)-5-(2-Benzyloxy-ethyl)-6-oxo-6,7-dihydro-5H-dibenzo[b,d]azepin-7-yl]-2-fluoro-2-methyl-N′-(2,2,3,3,3-pentafluoro-propyl)-malonamide]	8.00
O=C(CC(=O)N[C@@H]1C(=O)N(CCO)c2ccccc2-c2ccccc21)NCC(F)(F)C(F)(F)F [Example 9, N—[(S)-5-(2-Hydroxy-ethyl)-6-oxo-6,7-dihydro-5H-dibenzo[b,d]azepin-7-yl]-N′-(2,2,3,3,3-pentafluoro-propyl)-malonamide]	7.72
C[C@@](O)(C(=O)NCC(F)(F)F)C(=O)N[C@@H]1C(=O)N(CCOCc2ccccc2)c2ccccc2-c2ccccc21 [Example 57, (R)—N—[(S)-5-(2-Benzyloxy-ethyl)-6-oxo-6,7-dihydro-5H-dibenzo[b,d]azepin-7-yl]-2-hydroxy-2-methyl-N′-(2,2,2-trifluoro-ethyl)-malonamide]	7.05
C[C@H](OC(=O)NCC(F)(F)F)C(=O)N[C@@H]1C(=O)N(CCOCc2ccccc2)c2ccccc2-c2ccccc21 [Example 37, (2,2,2-Trifluoro-ethyl)-carbamic acid (S)-1-[(S)-5-(2-benzyloxy-ethyl)-6-oxo-6,7-dihydro-5H-dibenzo[b,d]azepin-7-ylcarbamoyl]-ethyl ester]	7.74
O=C(CC(=O)N[C@@H]1C(=O)N(CCOCc2ccccc2)c2ccccc2-c2ccccc21)NCCC(F)(F)C(F)(F)F [Example 29, N—[(S)-5-(2-Benzyloxy-ethyl)-6-oxo-6,7-dihydro-5H-dibenzo[b,d]azepin-7-yl]-N′-(3,3,4,4,4-pentafluoro-butyl)-malonamide]	7.74
COCCN1C(=O)[C@@H](NC(=O)[C@@](C)(F)C(=O)NCC(F)(F)C(F)(F)F)c2ccccc2-c2ccccc21 [Example 32, (S)-2-Fluoro-N—[(S)-5-(2-methoxy-ethyl)-6-oxo-6,7-dihydro-5H-dibenzo[b,d]azepin-7-yl]-2-methyl-N′-(2,2,3,3,3-pentafluoro-propyl)-malonamide]	7.74
CCOC(C(=O)NCC(F)(F)C(F)(F)F)C(=O)N[C@@H]1C(=O)N(CCO)c2ccccc2-c2ccccc21 (single isomer, unassigned; epimer a) [Example 18, (S or R)-2-Ethoxy-N—[(S)-5-(2-hydroxy-ethyl)-6-oxo-6,7-dihydro-5H-dibenzo[b,d]azepin-7-yl]-N′-(2,2,3,3,3-pentafluoro-propyl)-malonamide, epimer A]	8.15
CC(C)OCCN1C(=O)[C@@H](NC(=O)C(C)(C)C(=O)NCC(F)(F)C(F)(F)F)c2ccccc2-c2ccccc21 [Example 70, N—[(S)-5-(2-Isopropoxy-ethyl)-6-oxo-6,7-dihydro-5H-dibenzo[b,d]azepin-7-yl]-2,2-dimethyl-N′-(2,2,3,3,3-pentafluoro-propyl)-malonamide]	8.15
C[C@H](OC(=O)NCCC(F)(F)F)C(=O)N[C@@H]1C(=O)N(CCOCc2ccccc2)c2ccccc2-c2ccccc21 [Example 35, (3,3,3-Trifluoro-propyl)-carbamic acid (S)-1-[(S)-5-(2-benzyloxy-ethyl)-6-oxo-6,7-dihydro-5H-dibenzo[b,d]azepin-7-ylcarbamoyl]-ethyl ester]	7.66

Molecules with a higher pIC50, results first:

pIC50	Structure (SMILES)
8.40	COCCN1C(=O)[C@@H](NC(=O)[C@](C)(F)C(=O)NCC(F)(F)C(F)(F)F)c2ccccc2-c2ccccc21 [Example 33, (R)-2-Fluoro-N—[(S)-5-(2-methoxy-ethyl)-6-oxo-6,7-dihydro-5H-dibenzo[b,d]azepin-7-yl]-2-methyl-N′-(2,2,3,3,3-pentafluoro-propyl)-malonamide]
9.00	CC(O)(C(=O)NCCC(F)(F)F)C(=O)N[C@@H]1C(=O)N(CCO)c2ccccc2-c2ccccc21 (single isomer, unassigned; epimer b) [Example 66, (S or R)-2-Hydroxy-N—[(S)-5-(2-hydroxy-ethyl)-6-oxo-6,7-dihydro-5H-dibenzo[b,d]azepin-7-yl]-2-methyl-N′-(3,3,3-trifluoro-propyl)-malonamide, epimer B]
9.00	CC(O)(C(=O)NCC(F)(F)C(F)(F)F)C(=O)N[C@@H]1C(=O)N(CCO)c2ccccc2-c2ccccc21 (single isomer, unassigned; epimer b) [Example 21]
8.40	C[C@](F)(C(=O)NCC(F)(F)C(F)(F)F)C(=O)N[C@@H]1C(=O)N(CCO)c2ccccc2-c2ccccc21 [Example 27, (S)-2-Fluoro-N—[(S)-5-(2-hydroxy-ethyl)-6-oxo-6,7-dihydro-5H-dibenzo[b,d]azepin-7-yl]-2-methyl-N′-(2,2,3,3,3-pentafluoro-propyl)-malonamide]
8.22	CCOCCN1C(=O)[C@@H](NC(=O)C(C)(C)C(=O)NCC(F)(F)C(F)(F)F)c2ccccc2-c2ccccc21 [Example 71, N—[(S)-5-(2-Ethoxy-ethyl)-6-oxo-6,7-dihydro-5H-dibenzo[b,d]azepin-7-yl]-2,2-dimethyl-N′-(2,2,3,3,3-pentafluoro-propyl)-malonamide]
8.40	COCCN1C(=O)[C@@H](NC(=O)C(C)(O)C(=O)NCC(F)(F)C(F)(F)F)c2ccccc2-c2ccccc21 (stereo partly drawn) [Example 34, 2-Hydroxy-N—[(S)-5-(2-methoxy-ethyl)-6-oxo-6,7-dihydro-5H-dibenzo[b,d]azepin-7-yl]-2-methyl-N′-(2,2,3,3,3-pentafluoro-propyl)-malonamide]
8.52	CC(F)(C(=O)NCC(F)(F)C(F)(F)F)C(=O)N[C@@H]1C(=O)N(CCO)c2ccccc2-c2ccccc21 (stereo partly drawn) [Example 16, 2-Fluoro-N—[(S)-5-(2-hydroxy-ethyl)-6-oxo-6,7-dihydro-5H-dibenzo[b,d]azepin-7-yl]-2-methyl-N′-(2,2,3,3,3-pentafluoro-propyl)-malonamide]
8.22	CC(C(=O)NCC(F)(F)C(F)(F)F)C(=O)N[C@@H]1C(=O)N(CCOCc2ccccc2)c2ccccc2-c2ccccc21 (stereo partly drawn) [Example 2, N—[(S)-5-(2-Benzyloxy-ethyl)-6-oxo-6,7-dihydro-5H-dibenzo[b,d]azepin-7-yl]-2-methyl-N′-(2,2,3,3,3-pentafluoro-propyl)-malonamide]
9.00	CC(O)(C(=O)NCC(F)(F)C(F)(F)F)C(=O)N[C@@H]1C(=O)N(CCO)c2ccccc2-c2ccccc21 (stereo partly drawn) [Example 15, 2-Hydroxy-N—[(S)-5-(2-hydroxy-ethyl)-6-oxo-6,7-dihydro-5H-dibenzo[b,d]azepin-7-yl]-2-methyl-N′-(2,2,3,3,3-pentafluoro-propyl)-malonamide]
8.22	COCCN1C(=O)[C@@H](NC(=O)[C@H](C)OC(=O)NCC(F)(F)C(F)(F)F)c2ccccc2-c2ccccc21 [Example 25, (2,2,3,3,3-Pentafluoro-propyl)-carbamic acid (S)-1-[(S)-5-(2-methoxy-ethyl)-6-oxo-6,7-dihydro-5H-dibenzo[b,d]azepin-7-ylcarbamoyl]-ethyl ester]
